The values below come from patent publication EP0181129B1, “N6-substituted deoxyribose analogs of adenosines” (WARNER-LAMBERT COMPANY, priority 1984, dated 1986).

Each structure is given as a SMILES string.

This assay concerns the target T1, adenosine A1 receptor (Rattus norvegicus, UniProt P25099).
T1 construct: brain minus cerebellum and brainstem from male Long Evans rats (150-200 g) was homogenized; from tissue; host or cells: rat whole brain minus cerebellum and brainstem, membrane homogenate
T1 sequence (P25099 1-326): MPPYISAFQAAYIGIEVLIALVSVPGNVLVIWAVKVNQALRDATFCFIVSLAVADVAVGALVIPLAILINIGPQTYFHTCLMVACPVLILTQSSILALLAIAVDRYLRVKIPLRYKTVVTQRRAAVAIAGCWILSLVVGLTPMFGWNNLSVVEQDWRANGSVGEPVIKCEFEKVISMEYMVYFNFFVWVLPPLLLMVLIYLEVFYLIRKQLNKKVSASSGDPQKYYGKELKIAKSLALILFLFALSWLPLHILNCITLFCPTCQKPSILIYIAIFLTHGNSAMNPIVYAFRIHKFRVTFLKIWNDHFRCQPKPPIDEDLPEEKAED
Description: Adenosine Receptor Binding - A1 Receptor Affinity (RBA1), [3H]-CHA displacement. The settings on record: 1.0 nM [3H]-CHA, rat whole brain membranes, one hour at 25°C; read-out: Receptor Binding RBA—1. The method, then: While brain minus cerebellum and brainstem from male Long Evans rats (150-200 g) was homogenized in 30 volumes of ice-cold 0.05 M Tris-CHI buffer pH 7.7 using a Brinkman Polytron PT-10, (setting number 6 for 20 seconds) and centrifuged for ten minutes at 20,000 x g (Sorvall RC-2), 4°C. The supernatant was discarded, and the pellet was resuspended and centrifuged as before. The pellet was resuspended in 20 ml Tris-HCI buffer containing two International Units/ml of adenosine deaminase (Sigma type III from calf intestinal mucosa), incubated at 37°C for 30 minutes, then subsequently at 0°C for ten minutes. The homogenate was again centrifuged, and the final pellet was resuspended in ice-cold 0.05 M Tris-HCI buffer pH 7.7 to a concentration of 20 mg/ml original wet tissue weight and used immediately.
Tissue homogenate (10 mg/ml) was incubated in 0.05 M Tris-HCI buffer pH 7.7 containing 1.0 nM (^3H]-N^e-cyclohexyladenosine ([^3H]-CHA) with or without tests agents in triplicate for one hour at 25°C. Incubation volume was 2 ml. Unbound [^3H]-CHA was separated by rapid filtration under reduced pressure through Whatman glass fiber (GF/B) filters. The filters were rinsed three times with 5 ml of ice cold 0.05 M Tris-HCI buffer pH 7.7. The radio-labeled ligand retained on the filter was measured by liquid scintillation spectrophotometry after shaking the filters for one hour or longer on a mechanical shaker in 10 ml of Beckman Ready-Solv HP scintillation cocktail.
Nonspecific binding was defined as the binding which occurred in the presence of 1 mM theophylline. […] The Scatchard plot was calculated by linear regression of the line obtained by plotting the amount of radioligand bound (pmoles/gram of tissue) [formula] Since the amount of radioligand bound was a small fraction of the total amount added, free radioligand was defined as the concentration (nM) of radioligand added to the incubation mixture. The Hill coefficient was calculated by linear regression of the line obtained by plotting the log of the bound radioligand vs the log of the [formula] The maximal number of binding sites (Bmax) was calculated from the Scatchard plot.
Take `C[C@H]1O[C@@H](n2cnc3c(NCc4cccc5ccccc45)ncnc32)[C@H](O)[C@@H]1O` [Example 20, N^6-α-Naphthylmethyl-5' -deoxyadenosine]: the IC50 came to 1010 nM.

For the compound `O[C@@H]1[C@H](O)[C@@H](CCl)O[C@H]1n1cnc2c(NC3CCc4ccccc43)ncnc21` (stereo partly drawn) [Example 23, (R)-N^6(1-Indanyl)-5'-deoxy-5'-chloroadenosine], the IC50 was 80 nM. Next, `C[C@H]1O[C@@H](n2cnc3c(NC4CCCc5ccccc54)ncnc32)[C@H](O)[C@@H]1O` (stereo partly drawn) [Example 19, N^6-1-Tetralinyl-5' -deoxyadenosine]: 1370 nM.
